Patent US10626144B2, “Peptide derivatives and uses thereof” (Nosopharm, priority 2014, dated 2020)
Numbered stars: 1 amine (or outer) side, 2 acyl side, 3 side chain; on linkers, the order of the positions; unused ones are H or OH. Square brackets hold non-standard residues; d marks the D form. Peptide text beside a SMILES is read from it. * marks the point of attachment. Phe(3,4-(OMe)2) = COc1ccc(C[C@H](N)C(=O)O)cc1OC; Phe(3-CONH2) = NC(=O)c1cccc(C[C@H](N)C(=O)O)c1; Phe(3-OMe) = COc1cccc(C[C@H](N)C(=O)O)c1; Pro(cis-4-F) = O=C(O)[C@@H]1C[C@H](F)CN1; Phe(3-F) = N[C@@H](Cc1cccc(F)c1)C(=O)O; Pro(4R-NH2) = N[C@H]1CN[C@H](C(=O)O)C1; Dab(3S-OH) = NC[C@H](O)[C@H](N)C(=O)O; X4 = N=C(N)NCC/C=C(/N[*:1])C(=O)[*:2]; ΔZArg = N=C(N)NCC/C=C(\N)C(=O)O; dOrn = NCCC[C@@H](N)C(=O)O; hSer = N[C@@H](CCO)C(=O)O; Orn = NCCC[C@H](N)C(=O)O; Aze = O=C(O)[C@@H]1CCN1; Dab = NCC[C@H](N)C(=O)O; NH(CH2)5NH2 = NCCCCCN*; NH(CH2)4NH2 = NCCCCN*; NHiPr = CC(C)N*

Tests used:
Experiment in all cases: MIC, broth microdilution (CLSI), reference strain
Details in all cases: CAMHB
[1] = tested on: Pseudomonas aeruginosa ATCC 27853
[2] = tested on: Acinetobacter baumannii ATCC 19606
[3] = tested on: Escherichia coli ATCC 25922
[4] = tested on: Staphylococcus aureus ATCC 13709

Row | SMILES | Pa: MIC Pseudomonas aeruginosa ATCC 27853 [1] | Ab: MIC Acinetobacter baumannii ATCC 19606 [2] | Ec: MIC Escherichia coli ATCC 25922 [3] | Sa: MIC Staphylococcus aureus ATCC 13709 [4]
1 | COc1cccc(C[C@H](NC(=O)[C@@H]2CCCN2C(=O)[C@@H](CCCN)NC(=O)CNC(=O)[C@H](C)NC(=O)[C@@H](NC(=O)[C@@H](N)CCCCN)[C@@H](O)CN)C(=O)N[C@@H](CCCCN)C(=O)N/C(=C\CCNC(=N)N)C(=O)O)c1 [24.92] (H-K[Dab(3S-OH)]AG[dOrn]P[Phe(3-OMe)]K[ΔZArg]-OH) | − (>32 μg/mL) | − (>32 μg/mL) | + (≤32 μg/mL) | ++ (≤8 μg/mL)
2 | C[C@H](NC(=O)[C@@H](NC(=O)[C@@H](N)CCCCN)[C@@H](O)CN)C(=O)NCC(=O)N[C@H](CCCN)C(=O)N1CCC[C@H]1C(=O)N[C@@H](CCO)C(=O)N[C@@H](CCCCN)C(=O)N/C(=C\CCNC(=N)N)C(=O)O [24.129] (H-K[Dab(3S-OH)]AG[dOrn]P[hSer]K[ΔZArg]-OH) | − (>32 μg/mL) | − (>32 μg/mL) | − (>32 μg/mL) | − (>32 μg/mL)
3 | N=C(N)NCCC[C@@H](NC(=O)[C@H](CCCCN)NC(=O)[C@H](Cc1cnc[nH]1)NC(=O)[C@@H]1CCCN1C(=O)[C@@H](CCCN)NC(=O)CNC(=O)[C@@H](NC(=O)[C@@H](NC(=O)[C@@H](N)CCCCN)[C@@H](O)CN)[C@@H](O)CN)C(N)=O [22.30] (H-K[Dab(3S-OH)][Dab(3S-OH)]G[dOrn]PHK[dR]-NH2) | − (>32 μg/mL) | − (>32 μg/mL) | + (≤32 μg/mL) | ++ (≤8 μg/mL)
4 | CC(C)NC(=O)/C(=C/CCNC(=N)N)NC(=O)[C@H](CCCCN)NC(=O)[C@H](Cc1cnc[nH]1)NC(=O)[C@@H]1CCCN1C(=O)[C@@H](CCCN)NC(=O)CNC(=O)[C@H](C)NC(=O)[C@@H](NC(=O)[C@@H](N)CCCCN)[C@@H](O)CN [24.162] (H-K[Dab(3S-OH)]AG[dOrn]PHK[ΔZArg]-NHiPr) | − (>32 μg/mL) | − (>32 μg/mL) | + (≤32 μg/mL) | ++ (≤8 μg/mL)
5 | COCC[C@H](NC(=O)[C@@H]1CCCN1C(=O)[C@@H](CCCN)NC(=O)CNC(=O)[C@H](C)NC(=O)[C@@H](NC(=O)[C@@H](N)CCCCN)[C@@H](O)CN)C(=O)N[C@@H](CCCCN)C(=O)N/C(=C\CCNC(=N)N)C(=O)O [24.130] (H-K[Dab(3S-OH)]AG[dOrn]P[hSer](Me)K[ΔZArg]-OH) | − (>32 μg/mL) | − (>32 μg/mL) | − (>32 μg/mL) | + (≤32 μg/mL)
6 | C[C@H](NC(=O)[C@H](CCN)NC(=O)[C@@H](N)CCCN)C(=O)NCC(=O)N[C@H](CCCN)C(=O)N1CCC[C@H]1C(=O)N[C@@H](Cc1cnc[nH]1)C(=O)N[C@@H](CCCCN)C(=O)N/C(=C\CCNC(=N)N)C(=O)N[C@@H](CCCCN)C(=O)NCCCCN [14.16] (H-[Orn][Dab]AG[dOrn]PHK[ΔZArg]K-{NH(CH2)4NH2}) | − (>32 μg/mL) | − (>32 μg/mL) | − (>32 μg/mL) | ++ (≤8 μg/mL)
7 | C[C@H](NC(=O)[C@@H](NC(=O)[C@@H](N)CCCCN)[C@@H](O)CN)C(=O)NCC(=O)N[C@H](CCCN)C(=O)N1CCC[C@H]1C(=O)N[C@@H](Cc1cnc[nH]1)C(=O)N[C@@H](CCCCN)C(=O)N/C(=C\CCNC(=N)N)C(=O)N[C@@H](CCCCN)C(=O)NCCCCCN [24.6] (H-K[Dab(3S-OH)]AG[dOrn]PHK[ΔZArg]K-{NH(CH2)5NH2}) | ++ (≤8 μg/mL) | + (≤32 μg/mL) | ++ (≤8 μg/mL) | ++ (≤8 μg/mL)
8 | C[C@H](NC(=O)[C@@H](NC(=O)[C@@H](N)CCCCN)[C@@H](O)CN)C(=O)NCC(=O)N[C@H](CCCN)C(=O)N1CCC[C@H]1C(=O)N[C@@H](Cc1cnc[nH]1)C(=O)N[C@@H](CCCCN)C(=O)N/C(=C\CCNC(=N)N)C(=O)N[C@@H](CCCCN)C(N)=O [24.2] (H-K[Dab(3S-OH)]AG[dOrn]PHK[ΔZArg]K-NH2) | + (≤32 μg/mL) | − (>32 μg/mL) | ++ (≤8 μg/mL) | ++ (≤8 μg/mL)
9 | C[C@H](NC(=O)[C@@H](NC(=O)[C@@H](N)CCCCN)[C@@H](O)CN)C(=O)NCC(=O)N[C@H](CCCN)C(=O)N1CC[C@H]1C(=O)N[C@@H](Cc1cccc(F)c1)C(=O)N[C@@H](CCCCN)C(=O)N/C(=C\CCNC(=N)N)C(=O)O [24.71] (H-K[Dab(3S-OH)]AG[dOrn][Aze][Phe(3-F)]K[ΔZArg]-OH) | − (>32 μg/mL) | − (>32 μg/mL) | + (≤32 μg/mL) | + (≤32 μg/mL)
10 | C[C@H](NC(=O)[C@H](CCN)NC(=O)[C@@H](N)CCCCN)C(=O)NCC(=O)N[C@H](CCCN)C(=O)N1CCC[C@H]1C(=O)N[C@@H](Cc1cnc[nH]1)C(=O)N[C@@H](CCCCN)C(=O)N/C(=C/CCNC(=N)N)C(=O)N[C@@H](CCCCN)C(=O)NCCCCN [14.1] (H-K[Dab]AG[dOrn]PHK[X4]K-{NH(CH2)4NH2}) | − (>32 μg/mL) | − (>32 μg/mL) | + (≤32 μg/mL) | ++ (≤8 μg/mL)
11 | N=C(N)NCC/C=C(\NC(=O)[C@H](CCCCN)NC(=O)[C@H](Cc1cccc(C(N)=O)c1)NC(=O)[C@@H]1CCCN1C(=O)[C@@H](CCCN)NC(=O)CNC(=O)[C@@H](NC(=O)[C@@H](NC(=O)[C@@H](N)CCCCN)[C@@H](O)CN)[C@@H](O)CN)C(=O)O [22.35] (H-K[Dab(3S-OH)][Dab(3S-OH)]G[dOrn]P[Phe(3-CONH2)]K[ΔZArg]-OH) | − (>32 μg/mL) | − (>32 μg/mL) | − (>32 μg/mL) | − (>32 μg/mL)
12 | C[C@H](NC(=O)[C@H](CCN)NC(=O)[C@@H](N)CCCCN)C(=O)NCC(=O)N[C@H](CCCN)C(=O)N1CCC[C@H]1C(=O)N[C@@H](Cc1cnc[nH]1)C(=O)N[C@@H](CCCCN)C(=O)N[C@H](CCCNC(=N)N)C(=O)N[C@@H](CCCCN)C(=O)NCCCCN [14.24] (H-K[Dab]AG[dOrn]PHK[dR]K-{NH(CH2)4NH2}) | − (>32 μg/mL) | − (>32 μg/mL) | − (>32 μg/mL) | + (≤32 μg/mL)
13 | C[C@H](NC(=O)[C@H](CCN)NC(=O)[C@@H](N)CCCCN)C(=O)NCC(=O)N[C@H](CCCN)C(=O)N1C[C@H](N)C[C@H]1C(=O)N[C@@H](Cc1cnc[nH]1)C(=O)N[C@@H](CCCCN)C(=O)N/C(=C\CCNC(=N)N)C(=O)N[C@@H](CCCCN)C(=O)NCCCCN [14.17] (H-K[Dab]AG[dOrn][Pro(4R-NH2)]HK[ΔZArg]K-{NH(CH2)4NH2}) | − (>32 μg/mL) | − (>32 μg/mL) | − (>32 μg/mL) | ++ (≤8 μg/mL)
14 | CSCC[C@H](NC(=O)[C@@H]1CCCN1C(=O)[C@@H](CCCN)NC(=O)CNC(=O)[C@H](C)NC(=O)[C@@H](NC(=O)[C@@H](N)CCCCN)[C@@H](O)CN)C(=O)N[C@@H](CCCCN)C(=O)N/C(=C\CCNC(=N)N)C(=O)O [24.131] (H-K[Dab(3S-OH)]AG[dOrn]PMK[ΔZArg]-OH) | − (>32 μg/mL) | − (>32 μg/mL) | + (≤32 μg/mL) | + (≤32 μg/mL)
15 | COc1ccc(C[C@H](NC(=O)[C@@H]2CCCN2C(=O)[C@@H](CCCN)NC(=O)CNC(=O)[C@H](CCCN)NC(=O)[C@@H](NC(=O)[C@@H](N)CCCCN)[C@@H](O)CN)C(=O)N[C@@H](CCCCN)C(=O)N/C(=C\CCNC(=N)N)C(=O)O)cc1 [211.7] (H-K[Dab(3S-OH)][Orn]G[dOrn]PY(Me)K[ΔZArg]-OH) | − (>32 μg/mL) | − (>32 μg/mL) | ++ (≤8 μg/mL) | ++ (≤8 μg/mL)
16 | C[C@H](NC(=O)[C@H](CCN)NC(=O)[C@@H](N)CCCCN)C(=O)NCC(=O)N[C@H](CCCN)C(=O)N1C[C@@H](F)C[C@H]1C(=O)N[C@@H](Cc1cnc[nH]1)C(=O)N[C@@H](CCCCN)C(=O)N/C(=C\CCNC(=N)N)C(=O)N[C@@H](CCCCN)C(=O)NCCCCN [14.4] (H-K[Dab]AG[dOrn][Pro(cis-4-F)]HK[ΔZArg]K-{NH(CH2)4NH2}) | − (>32 μg/mL) | − (>32 μg/mL) | − (>32 μg/mL) | ++ (≤8 μg/mL)
17 | N=C(N)NCC/C=C(\NC(=O)[C@H](CCCCN)NC(=O)[C@H](Cc1c[nH]c2ccccc12)NC(=O)[C@@H]1CCCN1C(=O)[C@@H](CCCN)NC(=O)CNC(=O)[C@H](CCCN)NC(=O)[C@@H](NC(=O)[C@@H](N)CCCCN)[C@@H](O)CN)C(=O)O [211.11] (H-K[Dab(3S-OH)][Orn]G[dOrn]PWK[ΔZArg]-OH) | − (>32 μg/mL) | − (>32 μg/mL) | ++ (≤8 μg/mL) | ++ (≤8 μg/mL)
18 | COc1ccc(C[C@H](NC(=O)[C@@H]2CCCN2C(=O)[C@@H](CCCN)NC(=O)CNC(=O)[C@@H](NC(=O)[C@@H](NC(=O)[C@@H](N)CCCCN)[C@@H](O)CN)[C@@H](O)CN)C(=O)N[C@@H](CCCCN)C(=O)N/C(=C\CCNC(=N)N)C(=O)O)cc1OC [22.34] (H-K[Dab(3S-OH)][Dab(3S-OH)]G[dOrn]P[Phe(3,4-(OMe)2)]K[ΔZArg]-OH) | − (>32 μg/mL) | − (>32 μg/mL) | ++ (≤8 μg/mL) | ++ (≤8 μg/mL)
